We go through 22 molecules from ChEMBL document CHEMBL4476883, “Hydroxy formamide derivatives and their use” (2017).

Each structure is given as a SMILES string. pIC50: −log10 of the molar value.

The nature of test [1]: Reduction in PICP levels in human cardiac fibroblasts incubated for 24 to 48 hrs by ELISA. It counts as functional.
The target in the next test is Tolloid-like protein 1 (Homo sapiens, UniProt O43897, I156V/N221S/V284A). The test can be described thus: Inhibition of recombinant human TLL1 I156V/N221S/V284A mutant expressed in CHOE1A cells pre-incubated for 10 mins before promyostatin peptide substrate addition and measured after 60 mins by FRET based assay. It is filed as cell-based.
Chain of Tolloid-like protein 1 (O43897 148-1013 I156V/N221S/V284A limits assumed): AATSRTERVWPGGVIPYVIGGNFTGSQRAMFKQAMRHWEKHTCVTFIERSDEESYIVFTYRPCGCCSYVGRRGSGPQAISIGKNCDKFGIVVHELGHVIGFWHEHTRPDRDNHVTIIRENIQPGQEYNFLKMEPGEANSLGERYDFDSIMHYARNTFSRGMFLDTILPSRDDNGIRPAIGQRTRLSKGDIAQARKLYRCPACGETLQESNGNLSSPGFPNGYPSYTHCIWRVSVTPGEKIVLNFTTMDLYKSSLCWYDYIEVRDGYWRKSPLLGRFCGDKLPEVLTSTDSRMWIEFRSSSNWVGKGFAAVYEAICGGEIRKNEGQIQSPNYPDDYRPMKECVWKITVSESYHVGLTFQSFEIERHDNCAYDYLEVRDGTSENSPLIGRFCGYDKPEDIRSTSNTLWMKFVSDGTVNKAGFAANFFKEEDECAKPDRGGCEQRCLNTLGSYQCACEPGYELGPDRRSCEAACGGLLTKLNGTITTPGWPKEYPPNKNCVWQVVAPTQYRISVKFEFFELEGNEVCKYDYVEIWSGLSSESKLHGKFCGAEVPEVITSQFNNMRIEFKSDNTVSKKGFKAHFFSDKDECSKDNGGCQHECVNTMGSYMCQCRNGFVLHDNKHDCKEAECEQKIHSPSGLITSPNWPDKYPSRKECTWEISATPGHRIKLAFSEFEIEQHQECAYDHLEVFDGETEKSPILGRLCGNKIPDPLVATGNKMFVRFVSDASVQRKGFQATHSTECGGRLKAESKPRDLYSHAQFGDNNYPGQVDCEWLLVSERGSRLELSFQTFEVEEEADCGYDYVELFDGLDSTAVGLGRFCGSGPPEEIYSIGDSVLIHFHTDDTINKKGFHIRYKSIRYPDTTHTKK
In a further test the target is T1, Tolloid-like protein 2 (Homo sapiens, UniProt Q9Y6L7).
T1 sequence (Q9Y6L7 whole entry): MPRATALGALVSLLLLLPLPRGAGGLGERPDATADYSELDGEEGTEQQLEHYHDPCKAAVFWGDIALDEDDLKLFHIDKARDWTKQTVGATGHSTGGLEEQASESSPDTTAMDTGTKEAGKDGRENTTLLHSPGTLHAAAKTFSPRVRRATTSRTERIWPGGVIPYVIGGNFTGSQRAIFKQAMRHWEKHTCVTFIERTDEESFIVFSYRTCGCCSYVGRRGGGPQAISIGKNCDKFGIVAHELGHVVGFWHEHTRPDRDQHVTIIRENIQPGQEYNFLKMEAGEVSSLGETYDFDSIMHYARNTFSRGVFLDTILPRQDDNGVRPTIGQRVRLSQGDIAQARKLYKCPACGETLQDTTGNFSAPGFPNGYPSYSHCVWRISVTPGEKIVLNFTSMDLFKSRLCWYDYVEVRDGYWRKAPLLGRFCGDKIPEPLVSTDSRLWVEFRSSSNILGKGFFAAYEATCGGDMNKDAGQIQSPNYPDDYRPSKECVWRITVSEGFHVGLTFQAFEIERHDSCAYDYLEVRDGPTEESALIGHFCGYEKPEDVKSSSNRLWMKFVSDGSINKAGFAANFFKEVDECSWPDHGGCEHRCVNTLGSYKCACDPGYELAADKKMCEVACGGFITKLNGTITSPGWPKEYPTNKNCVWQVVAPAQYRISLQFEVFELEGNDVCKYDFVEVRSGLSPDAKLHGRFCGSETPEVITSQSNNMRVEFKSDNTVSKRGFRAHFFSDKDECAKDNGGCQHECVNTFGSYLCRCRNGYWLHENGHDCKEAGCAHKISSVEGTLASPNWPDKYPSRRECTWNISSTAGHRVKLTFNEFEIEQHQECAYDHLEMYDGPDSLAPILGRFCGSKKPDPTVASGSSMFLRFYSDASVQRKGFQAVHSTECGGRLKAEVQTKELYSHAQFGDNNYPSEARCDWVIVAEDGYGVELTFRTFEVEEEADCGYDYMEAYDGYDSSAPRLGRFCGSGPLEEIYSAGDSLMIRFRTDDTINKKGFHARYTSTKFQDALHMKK
The test can be described thus: Inhibition of C-terminal Avi-6x-His epitope tagged and N-terminal human RAGE signal sequence tagged recombinant human TLL2 (26 to 1015 amino acids) expressed in CHOE1A cells incubated for 60 mins with promyostatin peptide substrate by FRET based assay. It is filed as cell-based.

In test [2] the target is T2, Bone morphogenetic protein 1 (Homo sapiens, UniProt P13497).
T2 sequence (P13497 whole entry): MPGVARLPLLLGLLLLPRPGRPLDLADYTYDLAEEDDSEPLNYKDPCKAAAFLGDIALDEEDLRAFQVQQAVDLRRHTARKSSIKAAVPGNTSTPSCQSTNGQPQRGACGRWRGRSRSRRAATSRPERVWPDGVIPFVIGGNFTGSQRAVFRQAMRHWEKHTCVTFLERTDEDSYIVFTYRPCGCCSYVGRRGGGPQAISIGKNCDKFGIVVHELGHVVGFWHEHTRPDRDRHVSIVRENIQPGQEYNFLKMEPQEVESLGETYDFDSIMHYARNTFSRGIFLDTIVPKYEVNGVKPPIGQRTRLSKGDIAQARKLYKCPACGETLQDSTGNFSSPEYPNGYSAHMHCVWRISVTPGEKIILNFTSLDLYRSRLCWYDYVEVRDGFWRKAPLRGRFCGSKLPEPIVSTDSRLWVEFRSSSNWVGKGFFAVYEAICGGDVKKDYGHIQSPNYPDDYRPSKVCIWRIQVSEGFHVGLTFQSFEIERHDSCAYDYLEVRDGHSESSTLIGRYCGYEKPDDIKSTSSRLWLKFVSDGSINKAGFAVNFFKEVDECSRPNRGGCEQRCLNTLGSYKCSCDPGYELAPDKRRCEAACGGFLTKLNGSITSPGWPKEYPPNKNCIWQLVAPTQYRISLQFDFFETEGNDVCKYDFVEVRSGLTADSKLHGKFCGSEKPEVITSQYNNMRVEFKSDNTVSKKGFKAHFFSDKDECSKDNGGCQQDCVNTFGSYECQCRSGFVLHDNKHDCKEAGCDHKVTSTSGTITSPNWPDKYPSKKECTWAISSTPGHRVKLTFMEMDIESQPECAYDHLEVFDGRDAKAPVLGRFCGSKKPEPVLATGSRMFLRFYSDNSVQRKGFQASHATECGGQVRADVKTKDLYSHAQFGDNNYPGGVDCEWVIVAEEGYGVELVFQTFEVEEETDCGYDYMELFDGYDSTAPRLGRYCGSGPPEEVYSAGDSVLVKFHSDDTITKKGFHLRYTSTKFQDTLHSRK
As to the kind of experiment: Inhibition of C-terminal FLAG-6x-His epitope tagged and N-terminal human RAGE signal sequence tagged human BMP1 (23 to 721 amino acids) expressed in CHO-E1A cells pre-incubated for 10 mins before promyostatin peptide substrate addition and measured after 30 mins using 50 nM BMP1 by FRET based assay. It is filed as cell-based.

The target of test [3] is T2, Bone morphogenetic protein 1. As to the kind of experiment: Inhibition of C-terminal FLAG-6x-His epitope tagged and N-terminal human RAGE signal sequence tagged human BMP1 (23 to 721 amino acids) expressed in CHO-E1A cells pre-incubated for 10 mins before promyostatin peptide substrate addition and measured after 60 mins using 0.5 nM BMP1 by FRET based assay. It is filed as cell-based.

`CCCCC[C@H](CN(O)C=O)C(=O)NCNC(=O)c1cccc(-c2ccc(F)c(OC)c2)n1`: the negative-log IC50 (pIC50) is over 4.70 in test [1]; over 6.40 on Tolloid-like protein 1; over 6.20 on Tolloid-like protein 2; over 6.60 in test [2]; over 6.90 in test [3].

In the case of `O=CN(O)C[C@@H](CCc1ccccc1)C(=O)NCNC(=O)c1cccc(-c2ccccc2)n1`, the pIC50 in test [1] is over 4.70; on Tolloid-like protein 1, over 6.40; on Tolloid-like protein 2, over 6.20; in test [2], over 6.60; in test [3], over 6.90.

For `CCCCC[C@@H](C(=O)NCNC(=O)c1cccc(-c2cc(OCC)cc(C(=O)O)c2O)n1)[C@@H](CC)N(O)C=O`, the negative-log IC50 (pIC50) was over 4.70 in test [1]; over 6.40 at Tolloid-like protein 1; over 6.20 on Tolloid-like protein 2; over 6.60 in test [2]; over 6.90 in test [3].

`CCCCC[C@@H](C(=O)NCNC(=O)c1cncc(-c2ccc(C(=O)O)c(OCC)c2)n1)[C@@H](CC)N(O)C=O`: the pIC50 in test [1] is over 4.70; at Tolloid-like protein 1, over 6.40; at Tolloid-like protein 2, over 6.20; in test [2], over 6.60; in test [3] it was over 6.90.

Turning to `CCCCC[C@@H](C(=O)NCNC(=O)c1cccc(-c2ccc(C(=O)O)c(O)c2)c1)[C@@H](CC)N(O)C=O`, the negative logarithm of the IC50 (pIC50) in test [1] is over 4.70; at Tolloid-like protein 1 it was over 6.40; at Tolloid-like protein 2, over 6.20; in test [2], over 6.60; in test [3], over 6.90.

Turning to `CCCCC[C@H](CN(O)C=O)C(=O)NCNC(=O)c1cccc(-c2cccnc2)n1`, the negative logarithm of the IC50 (pIC50) was over 4.70 in test [1]; over 6.40 on Tolloid-like protein 1; over 6.20 at Tolloid-like protein 2; over 6.60 in test [2]; over 6.90 in test [3].

Turning to `CCCCC[C@@H](C(=O)NCNC(=O)c1cccc(-c2ccc(C(=O)N[C@@H](CC(=O)O)C(=O)O)c(OCC(=O)O)c2)n1)[C@@H](CC)N(O)C=O`, the negative-log IC50 (pIC50) in test [1] is over 4.70; at Tolloid-like protein 1, over 6.40; at Tolloid-like protein 2 it was over 6.20; in test [2], over 6.60; in test [3], over 6.90.

Turning to `CCCCC[C@H](CN(O)C=O)C(=O)NCNC(=O)c1cccc(-c2ccccc2)n1`, the pIC50 in test [1] was over 4.70; at Tolloid-like protein 1, over 6.40; on Tolloid-like protein 2, over 6.20; in test [2], over 6.60; in test [3] it was over 6.90.

Take `CCCCC[C@H](CN(O)C=O)C(=O)NCNC(=O)c1cccc(-c2cccc(OC)n2)n1`: the pIC50 is over 4.70 in test [1]; over 6.40 on Tolloid-like protein 1; over 6.20 at Tolloid-like protein 2; over 6.60 in test [2]; over 6.90 in test [3].

Turning to `CCCCC[C@@H](C(=O)NCNC(=O)c1cccc(-c2cc(OCC)cc(C(=O)N[C@@H](CC(=O)O)C(=O)O)c2)n1)[C@@H](CC)N(O)C=O`, the pIC50 was over 4.70 in test [1]; over 6.40 at Tolloid-like protein 1; over 6.20 on Tolloid-like protein 2; over 6.60 in test [2]; over 6.90 in test [3].

With `CCCCC[C@H](CN(O)C=O)C(=O)NCNC(=O)c1cccc(-c2cccc(OC)c2)n1`, the pIC50 in test [1] was over 4.70; at Tolloid-like protein 1 it was over 6.40; on Tolloid-like protein 2, over 6.20; in test [2], over 6.60; in test [3] it was over 6.90.

On to `CCCCC[C@H](CN(O)C=O)C(=O)NCNC(=O)c1cccc(-c2ccc(C(F)(F)F)cc2)n1`, for which the pIC50 in test [1] was over 4.70; at Tolloid-like protein 1, over 6.40; on Tolloid-like protein 2, over 6.20; in test [2] it was over 6.60; in test [3], over 6.90.

As for `CCCCC[C@H](CN(O)C=O)C(=O)NCNC(=O)c1cccc(-c2cccc(OC)c2F)n1`, the pIC50 in test [1] is over 4.70; at Tolloid-like protein 1, over 6.40; at Tolloid-like protein 2, over 6.20; in test [2] it was over 6.60; in test [3], over 6.90.

With `CCCCC[C@@H](C(=O)NCNC(=O)c1cccc(-c2cc(C(=O)OCC)cc(S(N)(=O)=O)c2)n1)[C@@H](CC)N(O)C=O`, the pIC50 in test [1] is over 4.70; at Tolloid-like protein 1, over 6.40; on Tolloid-like protein 2, over 6.20; in test [2] it was over 6.60; in test [3], over 6.90.

For the molecule `CCCCC[C@H](CN(O)C=O)C(=O)NCNC(=O)c1ccnc(-c2ccccc2)n1`, the pIC50 was over 4.70 in test [1]; over 6.40 at Tolloid-like protein 1; over 6.20 on Tolloid-like protein 2; over 6.60 in test [2]; over 6.90 in test [3].

For `CCCCC[C@@H](C(=O)NCNC(=O)c1cccc(-c2cc(OCC)cc(P(=O)(O)O)c2)n1)[C@@H](CC)N(O)C=O`, the pIC50 in test [1] is over 4.70; on Tolloid-like protein 1, over 6.40; at Tolloid-like protein 2, over 6.20; in test [2], over 6.60; in test [3] it was over 6.90.

For `CCCCC[C@H](CN(O)C=O)C(=O)NCNC(=O)c1cccc(-c2ccc(F)cc2)n1`, the pIC50 in test [1] was over 4.70; at Tolloid-like protein 1, over 6.40; at Tolloid-like protein 2, over 6.20; in test [2], over 6.60; in test [3], over 6.90.

On to `CCCCC[C@@H](C(=O)NCNC(=O)c1cccc(-c2cccc(S)c2)c1)[C@@H](CC)N(O)C=O`, for which the pIC50 in test [1] was over 4.70; at Tolloid-like protein 1, over 6.40; on Tolloid-like protein 2, over 6.20; in test [2], over 6.60; in test [3], over 6.90.

On to `CCCCC[C@@H](C(=O)NCNC(=O)c1ccc(F)c(-c2ccc(C(=O)O)c(OCC)c2)n1)[C@@H](CC)N(O)C=O`, for which the pIC50 in test [1] was over 4.70; on Tolloid-like protein 1 it was over 6.40; at Tolloid-like protein 2, over 6.20; in test [2] it was over 6.60; in test [3] it was over 6.90.

On to `CCCCC[C@@H](C(=O)NCNC(=O)c1cccc(-c2ccc(C(=O)N[C@@H](CC(=O)O)C(=O)O)c(OCC(=O)O)c2)c1)[C@@H](CC)N(O)C=O`, for which the negative-log IC50 (pIC50) in test [1] was over 4.70; on Tolloid-like protein 1 it was over 6.40; at Tolloid-like protein 2 it was over 6.20; in test [2], over 6.60; in test [3], over 6.90.

As for `CCCCC[C@H](CN(O)C=O)C(=O)NCNC(=O)c1cccc(-c2ccc(F)cc2F)n1`, the negative logarithm of the IC50 (pIC50) in test [1] is over 4.70; at Tolloid-like protein 1 it was over 6.40; on Tolloid-like protein 2, over 6.20; in test [2], over 6.60; in test [3], over 6.90.

For the molecule `CCCCC[C@@H](C(=O)NCNC(=O)c1cccc(-c2ccc(C(=O)N[C@@H](CC(=O)O)C(=O)O)c(OCC)c2)c1)[C@@H](CC)N(O)C=O`, the negative logarithm of the IC50 (pIC50) in test [1] was over 4.70; at Tolloid-like protein 1, over 6.40; on Tolloid-like protein 2 it was over 6.20; in test [2] it was over 6.60; in test [3], over 6.90.
